Reference: US11052092B2, “N-{[2-(piperidin-1-yl)phenyl](phenyl)methyl}-2-(3-oxo-3,4-dihydro-2H-1,4-benzoxazin-7-yl)acetamide derivatives and related compounds as ROR-gamma modulators for treating autoimmune diseases” (Genfit, priority 2017, dated 2021)

target: T1, human RORγt (Homo sapiens, UniProt P51449); assay: RORE Luciferase/RORγt transactivation assay; type: cell-based; details: COS-7 cells transfected with human IL-17 promoter luciferase reporter and RORγt plasmid; 20 h with compound; read-out: IC50, RORγt activity inhibition
T1 construct: the full-length cDNA of human RORγt; expressed in transfected cells; host or cells: COS-7 (monkey kidney)
T1 sequence (P51449 1-497 isoform P51449-2): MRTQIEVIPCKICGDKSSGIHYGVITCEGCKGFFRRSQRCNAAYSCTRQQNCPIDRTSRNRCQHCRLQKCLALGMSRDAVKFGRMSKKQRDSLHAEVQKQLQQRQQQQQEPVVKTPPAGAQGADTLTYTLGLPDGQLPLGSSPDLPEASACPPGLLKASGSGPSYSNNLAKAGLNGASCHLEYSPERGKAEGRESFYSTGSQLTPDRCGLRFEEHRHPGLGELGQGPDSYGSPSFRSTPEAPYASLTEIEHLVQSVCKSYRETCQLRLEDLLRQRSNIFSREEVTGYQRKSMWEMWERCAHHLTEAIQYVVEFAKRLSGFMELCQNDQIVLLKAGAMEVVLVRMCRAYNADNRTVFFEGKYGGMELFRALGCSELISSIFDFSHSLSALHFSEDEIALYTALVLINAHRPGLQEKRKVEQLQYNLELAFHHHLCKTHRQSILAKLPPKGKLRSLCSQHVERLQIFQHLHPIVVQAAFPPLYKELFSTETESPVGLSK
Method: It is well known that RORγ binds to a conserved non-coding sequence (CNS) enhancer element in the IL-17 promoter.
Culture medium was changed every 2 days.
The 4.3 Kb human IL-17 promoter containing the RORγ-specific CNS enhancer element was PCR amplified from human genomic DNA and cloned into a pGL3-TKLuc2Cp reporter plasmid.
The luciferase reporter plasmid and the RORγt overexpression plasmid were transfected into COS-7 cell line using 4 μLJetPEI™/μg of DNA. Briefly, 150 ng of DNA (ration ½ between RORE-Tk Luc2Cp and cDNA RORγt or the empty vector for the negative control) was served to transfect adherent COS-7 cells in a […] culture flask, in complete medium (see cos-7 cell line culture).
Cells were then detached (using trypsin) and washed by centrifugation at 300 g for 10 minutes. Cell pellet was resuspended in serum free/phenol red free DMEM and seeded in 384 well plates at a density of 10000 cells/well and then incubated for 4 h at 37° C.
Compounds were dissolved in 100% DMSO to obtain 10 mM stock solutions. For each compound, test concentrations were diluted in serum free/phenol red free DMEM using the Genesis Freedom 200™ (TECAN) and added to the cells to obtain a 0.3% DMSO final concentration (in a final volume of 40 μL per well).
The luciferase activity was then measured with 40 μL/well steady-Glo Luciferase assay system (Promega, Madison, Wis.) and after incubation at room temperature for 30 minutes. The luminescence was estimated using the Ultra384 reader (TECAN). Data were collected and analyzed using GraphPad Prism software (GraphPad Software V5.02, San Diego Calif. USA). IC50 in μM and Emax in % were reported for each compound.

| SMILES | IC50 [nM] |
| --- | --- |
| Cc1ccc(C(NC(=O)C2(c3ccc4c(c3)OCC(=O)N4)CC2)c2ccc(C)o2)c(N(C)C)c1 (stereo not shown) [Cpd. 156, N-{[2-(dimethylamino)-4-methylphenyl](5-methylfuran-2-yl)methyl}-1-(3-oxo-3,4-dihydro-2H-1,4-benzoxazin-7-yl)cyclopropane-1-carboxamide] | 10 to 100 |
| Cc1ccc(C(NC(=O)C2(c3cc(F)c4c(c3)CC(=O)N4)CC2)c2ccc(C)o2)c(C)c1 (stereo not shown) [Cpd. 158, N-[(2,4-dimethylphenyl)(5-methylfuran-2-yl)methyl]-1-(7-fluoro-2-oxo-2,3-dihydro-1H-indol-5-yl)cyclopropane-1-carboxamide] | 10 to 100 |
| Cc1ccc(C(NC(=O)C2(c3ccc4c(c3)COC(C)(C)O4)CC2)c2ccc(C)o2)c(C)c1 (stereo not shown) [Cpd. 169, 1-(2,2-dimethyl-2,4-dihydro-1,3-benzodioxin-6-yl)-N-[(2,4-dimethylphenyl)(5-methylfuran-2-yl)methyl]cyclopropane-1-carboxamide] | 100 to 1000 |
| Cc1ccc(C(NC(=O)C2(c3ccc4c(c3)OCS(=O)(=O)N4)CC2)c2ccc(C)o2)c(N(C)C)c1 (stereo not shown) [Cpd. 148, N-{[2-(dimethylamino)-4-methylphenyl](5-methylfuran-2-yl)methyl}-1-(2,2-dioxo-1,3-dihydro-4,2,1-benzoxathiazin-6-yl)cyclopropane-1-carboxamide] | 100 to 1000 |
| COc1ccc(C(NC(=O)C2(c3ccc4c(c3)OCS(=O)(=O)N4)CC2)c2ccc(C)o2)c(Br)c1 (stereo not shown) [Cpd. 147, N-[(2-bromo-4-methoxyphenyl)(5-methylfuran-2-yl)methyl]-1-(2,2-dioxo-1,3-dihydro-4,2,1-benzoxathiazin-6-yl)cyclopropane-1-carboxamide] | 10 to 100 |
| Cc1ccc(C(NC(=O)C2(c3ccc4c(c3)OCC(=O)N4)CC2)c2ccc(C)o2)c(Br)c1 (stereo not shown) [Cpd. 135, N-[(2-bromo-4-methylphenyl)(5-methylfuran-2-yl)methyl]-1-(3-oxo-3,4-dihydro-2H-1,4-benzoxazin-7-yl)cyclopropane-1-carboxamide] | < 10 |
| Cc1ccc(C(NC(=O)C2(c3ccc4c(c3)OC(C)(C)OC4)CC2)c2ccc(C)o2)c(C)c1 (stereo not shown) [Cpd. 168, 1-(2,2-dimethyl-2,4-dihydro-1,3-benzodioxin-7-yl)-N-[(2,4-dimethylphenyl)(5-methylfuran-2-yl)methyl]cyclopropane-1-carboxamide] | 100 to 1000 |
| Cc1ccc(C(NC(=O)C2(c3ccc4c(c3)CCC4O)CC2)c2ccc(C)o2)c(C)c1 (stereo not shown) [Cpd. 155, N-[(2,4-dimethylphenyl)(5-methylfuran-2-yl)methyl]-1-(1-hydroxy-2,3-dihydro-1H-inden-5-yl)cyclopropane-1-carboxamide] | 10 to 100 |
| Cc1ccc(C(NC(=O)C2(c3ccc4[nH]cc(CCO)c4c3)CC2)c2ccc(C)o2)c(N2CCCCC2)c1 (stereo not shown) [Cpd. 66, 1-[3-(2-hydroxyethyl)-1H-indol-5-yl]-N-{[4-methyl-2-(piperidin-1-yl)phenyl](5-methylfuran-2-yl)methyl}cyclopropane-1-carboxamide] | 10 to 100 |
| Cc1ccc(C(NC(=O)C2(c3ccc4c(c3)CCC4=NO)CC2)c2ccc(C)o2)c(C)c1 (stereo not shown) [Cpd. 165, N-[(2,4-dimethylphenyl)(5-methylfuran-2-yl)methyl]-1-[1-(hydroxyimino)-2,3-dihydro-1H-inden-5-yl]cyclopropane-1-carboxamide] | 10 to 100 |
| Cc1ccc(C(NC(=O)C2(c3ccc4c(c3)CN(S(C)(=O)=O)C4)CC2)c2ccc(C)o2)c(C)c1 (stereo not shown) [Cpd. 65, N-[(2,4-dimethylphenyl)(5-methylfuran-2-yl)methyl]-1-(2-methanesulfonyl-2,3-dihydro-1H-isoindol-5-yl)cyclopropane-1-carboxamide] | 10 to 100 |
| Cc1ccc(C(NC(=O)C2(c3ccc4c(c3)OCC(=O)N4)CC2)c2cccc(C)n2)c(C)c1 (stereo not shown) [Cpd. 136, N-[(2,4-dimethylphenyl)(6-methylpyridin-2-yl)methyl]-1-(3-oxo-3,4-dihydro-2H-1,4-benzoxazin-7-yl)cyclopropane-1-carboxamide] | 10 to 100 |
| Cc1ccc(C(NC(=O)C2(c3ccc4c(n3)OCC(=O)N4)CC2)c2ccc(C)o2)c(C)c1 (stereo not shown) [Cpd. 144, N-[(2,4-dimethylphenyl)(5-methylfuran-2-yl)methyl]-1-{2-oxo-1H,2H,3H-pyrido[2,3-b][1,4]oxazin-6-yl}cyclopropane-1-carboxamide] | 10 to 100 |
| Cc1ccc(C(NC(=O)C2(c3ccc4c(c3)CS(=O)(=O)N4C)CC2)c2ccc(C)o2)c(C)c1 (stereo not shown) [Cpd. 70, N-[(2,4-dimethylphenyl)(5-methylfuran-2-yl)methyl]-1-(1-methyl-2,2-dioxo-1,3-dihydro-2,1-benzothiazol-5-yl)cyclopropane-1-carboxamide] | 10 to 100 |
| Cc1ccc(C(NC(=O)Cc2ccc3c(ccn3CCC(=O)OC(C)(C)C)c2)c2ccc(C)o2)c(N2CCCCC2)c1 (stereo not shown) [Cpd. 96, tert-butyl 3-{5-[({[4-methyl-2-(piperidin-1-yl)phenyl](5-methylfuran-2-yl)methyl}carbamoyl)methyl]-1H-indol-1-yl}propanoate] | 100 to 1000 |
| Cc1ccc(C(NC(=O)C2(c3ccc4c(c3)OCC(=O)N4)CC2)c2ccc(Cl)cc2)c(C)c1 (stereo not shown) [Cpd. 140, N-[(4-chlorophenyl)(2,4-dimethylphenyl)methyl]-1-(3-oxo-3,4-dihydro-2H-1,4-benzoxazin-7-yl)cyclopropane-1-carboxamide] | 1000 to 10000 |
| CCN1c2ccc(C3(C(=O)NC(c4ccc(C)o4)c4ccc(C)cc4C)CC3)cc2CS1(=O)=O (stereo not shown) [Cpd. 132, N-[(2,4-dimethylphenyl)(5-methylfuran-2-yl)methyl]-1-(1-ethyl-2,2-dioxo-1,3-dihydro-2,1-benzothiazol-5-yl)cyclopropane-1-carboxamide] | 10 to 100 |
| Cc1ccc(C(NC(=O)C2(c3ccc4c(c3)CCC4=O)CC2)c2ccc(C)o2)c(C)c1 (stereo not shown) [Cpd. 141, N-[(2,4-dimethylphenyl)(5-methylfuran-2-yl)methyl]-1-(1-oxo-2,3-dihydro-1H-inden-5-yl)cyclopropane-1-carboxamide] | 100 to 1000 |
| O=C1COc2ccc(CC(=O)NC(c3ccccc3)c3ccccc3N3CCCCC3)cc2N1 (stereo not shown) [Cpd. 13, 2-(3-oxo-3,4-dihydro-2H-1,4-benzoxazin-6-yl)-N-{phenyl[2-(piperidin-1-yl)phenyl]methyl}acetamide] | 1000 to 10000 |
| Cc1ccc(C(NC(=O)C2(c3ccc4c(c3)OCO4)CC2)c2ccc(C)o2)c(N2CCCCC2)c1 (stereo not shown) [Cpd. 164, 1-(2H-1,3-benzodioxol-5-yl)-N-{[4-methyl-2-(piperidin-1-yl)phenyl](5-methylfuran-2-yl)methyl}cyclopropane-1-carboxamide] | 100 to 1000 |
| Cc1ccc(C(NC(=O)C2(c3ccc4c(c3)CS(=O)(=O)N4C)CC2)c2ccc(C)o2)c(N(C)C)c1 (stereo not shown) [Cpd. 133, N-{[2-(dimethylamino)-4-methylphenyl](5-methylfuran-2-yl)methyl}-1-(1-methyl-2,2-dioxo-1,3-dihydro-2,1-benzothiazol-5-yl)cyclopropane-1-carboxamide] | 10 to 100 |
| Cc1ccc(C(NC(=O)C2(c3ccc4c(c3)CN(S(C)(=O)=O)C4)CC2)c2ccc(Cl)o2)c(C)c1 (stereo not shown) [Cpd. 56, N-[(5-chlorofuran-2-yl)(2,4-dimethylphenyl)methyl]-1-(2-methanesulfonyl-2,3-dihydro-1H-isoindol-5-yl)cyclopropane-1-carboxamide] | 10 to 100 |
| Cc1ccc(C(NC(=O)C2(c3ccc4c(c3)OCC(=O)N4)CC2)c2ccco2)c(C)c1 (stereo not shown) [Cpd. 139, N-[(2,4-dimethylphenyl)(furan-2-yl)methyl]-1-(3-oxo-3,4-dihydro-2H-1,4-benzoxazin-7-yl)cyclopropane-1-carboxamide] | 10 to 100 |
| Cc1ccc(C(NC(=O)C2(c3ccc4c(c3)OCC(=O)N4)CC2)c2ccc(Cl)o2)c(C)c1 (stereo not shown) [Cpd. 134, N-[(5-chlorofuran-2-yl)(2,4-dimethylphenyl)methyl]-1-(3-oxo-3,4-dihydro-2H-1,4-benzoxazin-7-yl)cyclopropane-1-carboxamide] | < 10 |
| Cc1ccc(C(NC(=O)C2(c3ccc4c(c3)C(F)(F)C(=O)N4)CC2)c2ccc(C)o2)c(C)c1 (stereo not shown) [Cpd. 159, 1-(3,3-difluoro-2-oxo-2,3-dihydro-1H-indol-5-yl)-N-[(2,4-dimethylphenyl)(5-methylfuran-2-yl)methyl]cyclopropane-1-carboxamide] | 100 to 1000 |
